The values that follow come from ChEMBL document CHEMBL1127107, “The affinity of the excised binding domain of FK-506 for the immunophilin FKBP12” (Bioorg Med Chem Lett, 1993).

SMILES strings stand for the structures.

This experiment has as its target Peptidyl-prolyl cis-trans isomerase FKBP1A (Homo sapiens, UniProt P62942). The experiment in a line: The compound was evaluated for its affinity to the binding domain of immunophilin FK506 binding protein 12.

Peptidyl-prolyl cis-trans isomerase FKBP1A, sequence (P62942 whole entry, the tested form may be a part): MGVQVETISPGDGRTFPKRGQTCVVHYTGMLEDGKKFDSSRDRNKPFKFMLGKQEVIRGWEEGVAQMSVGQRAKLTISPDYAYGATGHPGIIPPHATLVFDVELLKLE

Broadly, the Kd is the constant that tells how readily two partners part at equilibrium. A high value points to lower affinity. As to `COC[C@H]1O[C@@](O)(C(=O)C(=O)N2CCCC[C@H]2C(=O)OC/C(C)=C/[C@@H]2CC[C@@H](O)[C@H](OC)C2)[C@H](C)C[C@@H]1OC`, the affinity, expressed as Kd, was 10 nM.
